No end group written: not given here.
Experiment: Overall hydrophobicity from UPLC traces
Type: physicochemical
Settings: Supporting Information Figure S1

overall hydrophobicity compared to wild-type kB1	Substance
increased overall hydrophobicity	TRGFEWLDWEFGLPV (also: bicyclic or more (positions not given here)) [[graft1, 16]kB1]
increased overall hydrophobicity	TRWGLPV (also: bicyclic or more (positions not given here)) [[W^mut, 16]kB1]
